Laboratory results: patent publication US20250171495A1, “MUTLI-TARGETED SERINE PROTEASE INHIBITORS FOR TREATMENT OF CANCER AND VIRAL INFECTION” (Washington University, priority 2023, published 2025)
Like-named read-outs stand apart in the source and are kept apart here.

Tests used:
Assay type in all cases: biochemical
matriptase = molecular target: T1, matriptase (Homo sapiens, UniProt Q9Y5Y6); assay: Fluorogenic kinetic enzyme inhibitor assay, matriptase
T1 construct: purchased R&D Systems 3946-SEB-010
T1 sequence (Q9Y5Y6 615-855 limits assumed): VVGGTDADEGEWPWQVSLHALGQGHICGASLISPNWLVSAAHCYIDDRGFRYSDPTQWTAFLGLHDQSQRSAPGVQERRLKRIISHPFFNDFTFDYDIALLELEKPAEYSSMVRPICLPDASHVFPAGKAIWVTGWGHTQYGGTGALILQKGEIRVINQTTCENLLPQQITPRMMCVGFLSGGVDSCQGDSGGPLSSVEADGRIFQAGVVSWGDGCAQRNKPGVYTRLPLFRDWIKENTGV

hepsin = molecular target: T2, hepsin (Homo sapiens, UniProt P05981); assay: Fluorogenic kinetic enzyme inhibitor assay, hepsin
T2 construct: purchased R&D Systems 4776-SE-010

HGFA = molecular target: T3, HGFA (Homo sapiens, UniProt Q04756); assay: Fluorogenic kinetic enzyme inhibitor assay, HGFA
T3 construct: purchased R&D Systems 1514-SE-010
T3 sequence (Q04756 408-655 limits assumed): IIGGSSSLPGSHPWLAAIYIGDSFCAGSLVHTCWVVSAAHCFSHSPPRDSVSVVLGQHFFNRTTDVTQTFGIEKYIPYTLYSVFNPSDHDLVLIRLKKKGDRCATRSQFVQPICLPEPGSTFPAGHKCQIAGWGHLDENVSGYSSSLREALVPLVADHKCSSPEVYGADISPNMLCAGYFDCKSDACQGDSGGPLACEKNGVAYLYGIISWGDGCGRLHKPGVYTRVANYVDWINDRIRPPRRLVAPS
T3 sequence (Q04756 373-407 partner limits assumed): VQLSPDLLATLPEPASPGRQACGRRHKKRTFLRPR

TMPRSS2 = TMPRSS2 (Homo sapiens, UniProt O15393); assay: Fluorogenic kinetic enzyme inhibitor assay, TMPRSS2; design: purchased Cusabio Technology CSB-YP023924HU; conditions: read-out: TMPRSS2 IC50
Sequence of TMPRSS2 (O15393 106-492 limits assumed): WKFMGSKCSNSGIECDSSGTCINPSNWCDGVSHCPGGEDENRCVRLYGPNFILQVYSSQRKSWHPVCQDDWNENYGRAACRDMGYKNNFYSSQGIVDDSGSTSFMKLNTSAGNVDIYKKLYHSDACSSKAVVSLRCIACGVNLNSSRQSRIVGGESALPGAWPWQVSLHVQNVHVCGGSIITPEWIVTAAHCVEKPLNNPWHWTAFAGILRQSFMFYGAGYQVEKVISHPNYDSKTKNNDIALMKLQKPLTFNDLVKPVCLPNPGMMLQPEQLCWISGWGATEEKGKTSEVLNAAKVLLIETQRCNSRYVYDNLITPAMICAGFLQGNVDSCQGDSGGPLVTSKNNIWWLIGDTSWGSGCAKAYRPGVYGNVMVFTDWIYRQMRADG

T2 sequence (P05981 163-417 limits assumed): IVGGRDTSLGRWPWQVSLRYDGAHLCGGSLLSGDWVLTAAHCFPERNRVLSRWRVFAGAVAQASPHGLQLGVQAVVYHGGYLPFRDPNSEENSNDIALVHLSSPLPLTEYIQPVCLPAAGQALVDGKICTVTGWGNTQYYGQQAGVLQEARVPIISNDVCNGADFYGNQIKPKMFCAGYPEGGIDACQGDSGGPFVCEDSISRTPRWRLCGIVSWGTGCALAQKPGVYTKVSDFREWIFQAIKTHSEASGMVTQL
T2 sequence (P05981 1-162 partner limits assumed): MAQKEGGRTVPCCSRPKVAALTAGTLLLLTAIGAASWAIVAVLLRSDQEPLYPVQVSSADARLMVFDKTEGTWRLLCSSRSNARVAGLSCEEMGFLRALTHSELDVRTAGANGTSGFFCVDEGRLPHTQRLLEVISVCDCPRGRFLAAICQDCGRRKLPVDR

| Compound | IC50 (matriptase) [nM] | IC50 (hepsin; read-out: Hepsin IC50) [nM] | IC50 (HGFA; read-out: HGFA IC50) [nM] | IC50 (TMPRSS2) [nM] | IC50 (hepsin) [nM] | IC50 (HGFA) [nM] | IC50 (matriptase; read-out: Matriptase IC50) [nM] | IC50 (matriptase; 30 min incubation, Boc-QAR-AMC at Km, read-out: Matriptase IC50) [nM] | IC50 (hepsin; 30 min incubation, Boc-QAR-AMC at Km, read-out: Hepsin IC50) [nM] | IC50 (TMPRSS2; 30 min incubation, Boc-QAR-AMC at Km) [nM] |
| --- | --- | --- | --- | --- | --- | --- | --- | --- | --- | --- |
| CCC(C)[C@H](NC(C)=O)C(=O)N[C@@H](CCC(N)=O)C(=O)N[C@H](C(=O)N[C@@H](CCCNC(=N)N)C(=O)c1nc2ccccc2s1)C(C)C (stereo partly drawn) [MM3180-2, N-[(S)-2-methyl-1-[N-(S)-1-[(1,3-benzothiazol-2-yl)carbonyl]-4-guanidinobutylcarbamoyl]propyl](S)-2-[(2S)-2-acetylamino-3-methylvalerylamino]glutaramide] | 0.761 | 0.106 | 799 | 0.031 |  |  |  |  |  |  |
| CC(=O)N1CCC[C@H]1C(=O)N[C@@H](CO)C(=O)N[C@@H](CCCCN)C(=O)N[C@@H](CCCNC(=N)N)C(=O)c1nc2ccccc2s1 [MM3194A, N-[(S)-2-hydroxy-1-[N-(S)-5-amino-1-[N-(S)-1-[(1,3-benzothiazol-2-yl)carbonyl]-4-guanidinobutylcarbamoyl]pentylcarbamoy1]ethyl]-(S)-1-acetyl-2-pyrrolidinecarboxamide] | 0.293 |  |  | 0.286 | 2.43 | > 20000 |  |  |  |  |
| CC(=O)N1CCC[C@H]1C(=O)N[C@@H](CO)C(=O)N[C@@H](CCCCN)C(=O)N[C@H](CCCNC(=N)N)C(=O)c1nc2ccccc2s1 [MM3194C, N-[(S)-2-hydroxy-1-[N-(S)-5-amino-1-[N-(R)-1-[(1,3-benzothiazol-2-yl)carbonyl]-4-guanidinobutylcarbamoyl]pentylcarbamoy1]ethyl]-(S)-1-acetyl-2-pyrrolidinecarboxamide] | 5.72 | 24.9 | > 20000 |  |  |  |  |  |  |  |
| CCC(C)[C@H](NC(C)=O)C(=O)N[C@@H](CO)C(=O)N[C@@H](Cc1ccccc1)C(=O)N[C@H](CCCNC(=N)N)C(=O)c1nc2ccccc2s1 (stereo partly drawn) [MM4009-1, N-[(S)-2-hydroxy-1-[N-(S)-1-[N-(R)-1-[(1,3-benzothiazol-2-yl)carbonyl]-4-guanidinobutylcarbamoyl]-2-phenylethylcarbamoyl]ethyl](2S)-2-acetylamino-3-methylvaleramide] | 18.4 | 2.08 | 1340 |  |  |  |  |  |  |  |
| CCC(C)[C@H](NC(C)=O)C(=O)N[C@@H](CO)C(=O)N[C@@H](Cc1ccccc1)C(=O)N[C@@H](CCCNC(=N)N)C(=O)c1nc2ccccc2s1 (stereo partly drawn) [MM4009-2, N-[(S)-2-hydroxy-1-[N-(S)-1-[N-(S)-1-[(1,3-benzothiazol-2-yl)carbonyl]-4-guanidinobutylcarbamoyl]-2-phenylethylcarbamoyl]ethyl] (2S)-2-acetylamino-3-methylvaleramide] | 2.17 | 1.05 | 126 | 0.067 |  |  |  |  |  |  |
| CCC(C)[C@H](NC(C)=O)C(=O)N[C@H](C(=O)N[C@@H](Cc1ccccc1)C(=O)N[C@@H](CCCNC(=N)N)C(=O)c1nc2ccccc2s1)C(C)O (stereo partly drawn) [MM4028-2, N-[(1S)-2-hydroxy-1-[N-(S)-1-[N-(S)-1-[(1,3-benzothiazol-2-yl)carbonyl]-4-guanidinobutylcarbamoyl]-2-phenylethylcarbamoyl]propyl](2S)-2-acetylamino-3-methylvaleramide] | 4.71 | 0.863 | 182 | 0.064 |  |  |  |  |  |  |
| CC(=O)N[C@@H](CO)C(=O)N[C@@H](Cc1cncn1COCc1ccccc1)C(=O)N[C@@H](CC(C)C)C(=O)N[C@H](CCCNC(=N)N)C(=O)c1nc2ccccc2s1 [MM4036-1, N-[(R)-1-[(1,3-benzothiazol-2-yl)carbonyl]-4-guanidinobutyl](S)-2-[(S)-2-[(S)-2-acetylamino-3-hydroxypropionylamino]-3-{1-[(benzyloxy)methyl]-5-imidazolyl}propionylamino]-4-methylvaleramide] | 139 | 1.47 | 1550 | 102 |  |  |  |  |  |  |
| CC(=O)N[C@@H](CO)C(=O)N[C@@H](Cc1cncn1COCc1ccccc1)C(=O)N[C@@H](CC(C)C)C(=O)N[C@@H](CCCNC(=N)N)C(=O)c1nc2ccccc2s1 [MM4036-2, N-[(S)-1-[(1,3-benzothiazol-2-yl)carbonyl]-4-guanidinobutyl](S)-2-[(S)-2-[(S)-2-acetylamino-3-hydroxypropionylamino]-3-{1-[(benzyloxy)methyl]-5-imidazolyl}propionylamino]-4-methylvaleramide] | 77.7 | 2.81 | 1070 |  |  |  |  |  |  |  |
| CCC(C)[C@H](NC(C)=O)C(=O)N[C@@H](CCC(=O)O)C(=O)N[C@@H](Cc1ccccc1)C(=O)N[C@@H](CCCNC(=N)N)C(=O)c1nc2ccccc2s1 (stereo partly drawn) [MM4037-2, (S)-4-[(2S)-2-acetylamino-3-methylvalerylamino]-4-[N-(S)-1-[N-(S)-1-[(1,3-benzothiazol-2-yl)carbonyl]-4-guanidinobutylcarbamoyl]-2-phenylethylcarbamoyl]butyric acid] | 2.42 | 0.35 | 276 | 0.109 |  |  |  |  |  |  |
| CC(=O)N[C@@H](Cc1c[nH]c2ccccc12)C(=O)N[C@@H](Cc1ccccc1)C(=O)N[C@@H](CCCNC(=N)N)C(=O)c1nc2ccc(C(=O)O)cc2s1 [PK-1-103, 2-[(S)-2-[(S)-2-[(S)-2-acetylamino-3-(3-indolyl)propionylamino]-3-phenylpropionylamino]-5-guanidinovaleryl]-1,3-benzothiazole-6-carboxylic acid] |  | 2.08 | 235 | 0.223 |  |  | 49.1 |  |  |  |
| CC(=O)N[C@@H](Cc1c[nH]c2ccccc12)C(=O)N[C@@H](CC(C)C)C(=O)N[C@@H](CCCNC(=N)N)C(=O)c1nc2ccc(C(=O)O)cc2s1 [PK-1-105, 2-[(S)-2-[(S)-2-[(S)-2-acetylamino-3-(3-indolyl)propionylamino]-4-methylvalerylamino]-5-guanidinovaleryl]-1,3-benzothiazole-6-carboxylic acid] |  | 0.362 | 98.3 | 1.45 |  |  | 144 |  |  |  |
| CC(=O)N[C@H]1Cc2ccc(cc2)OCCCC[C@@H](C(=O)N[C@H](CCCNC(=N)N)C(=O)c2nc3ccccc3s2)NC(=O)[C@H](Cc2ccccc2)NC1=O [VD4111A, N-[(R)-1-[(1,3-benzothiazol-2-yl)carbonyl]-4-guanidinobutyl]-(7S,10S,13S)-13-acetylamino-10-benzyl-9,12-dioxo-2-oxa-8,11-diazabicyclo[13.2.2]nonadeca-1(17),15,18-triene-7-carboxamide] | 330 |  |  |  | 12.7 | 3280 |  |  |  |  |
| CC(=O)N[C@H]1Cc2ccc(cc2)OCCCC[C@@H](C(=O)N[C@@H](CCCNC(=N)N)C(=O)c2nc3ccccc3s2)NC(=O)[C@@H](Cc2c[nH]c3ccccc23)NC1=O [VD4162B, N-[(S)-1-[(1,3-benzothiazol-2-yl)carbonyl]-4-guanidinobutyl]-(7S,10R,13S)-13-acetylamino-10-[(3-indolyl)methyl]-9,12-dioxo-2-oxa-8,11-diazabicyclo[13.2.2]nonadeca-1(17),15,18-triene-7-carboxamide] |  |  |  |  |  | 3.35 |  | 2.88 | 0.538 | 4.75 |
| CC(=O)N[C@H]1Cc2ccc(cc2)Oc2cccc(c2)C[C@@H](C(=O)N[C@H](CCCNC(=N)N)C(=O)c2nc3ccccc3s2)NC(=O)[C@H](CC(C)C)NC1=O [VD5064A, N-{(R)-1-[(1,3-benzothiazol-2-yl)carbonyl]-4-guanidinobutyl}-(9S,12S,15S)-15-acetylamino-12-isobutyl-11,14-dioxo-2-oxa-10,13-diazatricyclo[15.2.2.1^3,^7]docosa-1(19),3,5,7(22),17,20-hexaene-9-carboxamide] | 680 | 2.6 | 550 | 261 |  |  |  |  |  |  |
